Key:
Type in all cases: physicochemical
[1] = Vapor sorption analysis (TA Instrument VTI-SA+)
Protocol: The vapor sorption experiments for Form B were performed using a TA Instrument VTI-SA+ Vapor Sorption Analyzer. Sample (˜10 mg) was placed in a previously cleaned and tarred platinum pan then loaded into the instrument chamber. Sample was dried at 60° C. until the loss rate of 0.005 wt %/min was obtained for 10 minutes. The sample was then held isothermally at 25° C. while the % RH of the system was stepped between 4, 5, 15, 25, 35, 45, 55, 65, 75, 85, 95, 85, 75, 65, 55, 45, 35, 25, 15, 5, 4% RH. Equilibration criteria was +/−0.01 wt % for 35 min with a maximum equilibration time of 600 min at each step.

[2] = Competitive slurry experiments in ethanol
[3] = Solid state stability in bio-relevant media; details: pH 1 HCl 0.1 M, pH 3.05 citrate 50 mM, pH 7.4 phosphate 50 mM, Fassif pH 6.5, Fessif pH 5.0, 37° C., 200 rpm
Protocol: Form B was added to bio-relevant media (pH 1 HCl 0.1 M; pH 3.05 citrate 50 mM; pH 7.4 phosphate 50 mM; Fassif pH 6.5; Fessif pH 5.0) and solid state stability in the media was determined. Procedures are described in more detail as follows:
pH 1 HCl 0.1M: […] HCl was diluted to 100 mL with water. pH 1.02
pH 3.05 citrate 50 mM: 82 mL of 0.1 M citric acid and 18 mL of 0.1 M sodium citrate were mixed together. pH=3.07.
pH 7.4 phosphate 50 mM: 50 mL of 0.2 M KH2PO4 and 39.1 mL of 0.2 M NaOH were dissolved and diluted to 200 mL with water. pH 7.39.
Fassif pH 6.5: 23.4 mg of NaOH, 224.7 mg of NaH2PO4·2H2O and 304.3 mg of NaCl were dissolved and diluted to 50 mL with water. 33.6 mg of SIF powder was dissolved in 15 mL of FaSSIF buffer solution. The solution was kept stirring and equilibrated at ambient condition with light protection for 2 hours. pH=6.37.
Fessif pH 5.0: 202.6 mg of NaOH, 432.7 mg of acetic acid, and 591.3 mg of NaCl were dissolved and diluted to 50 mL with water. pH of the solution was 4.99. 168 mg of SIF powder was dissolved in 15 mL of FeSSIF buffer solution. The solution was kept stirring and equilibrated at ambient condition with light protection for 2 hours. pH=4.94.
30-50 mg of Form B was weighed into 12 mL sample vials and then 3 mL of test media was added respectively. The suspensions were kept shaking at 200 rpm under 37° C. for 24 hours. […]

[4] = Stability study of Form B (thermal and humidity treatments; HPLC purity, XRPD form)
Protocol: The stability study of Form B (before milling) was carried out at 80° C. for two weeks and at 40° C./75% RH for one month. Purity was determined by HPLC and stability was determined by XRPD. […] The stability of milled Form B was carried out as well under the same conditions. […] A purity decrease of 0.8% was detected for milled Form B after being treated at 80° C. for […].

[5] = Slurry conversion of Form A in anhydrous ethanol; details: 60° C., 24 hours
Protocol: 3 g of Form A was slurried in 90 mL anhydrous ethanol at 60° C. for 24 hours.

hygroscopicity by vapor sorption analysis [1]: non-hygroscopic
weight percent gain as measured by vapor sorption analyzer ([1]; up to 95% RH, 25° C.): less than 0.05%
relative stability versus Form A in competitive slurry ([2]; 10° C. and 60° C.): more stable compared to Form A
relative stability versus Form C in competitive slurry ([2]; 10° C. and 60° C.): more stable compared to Form C
relative stability versus Form E in competitive slurry ([2]; 22.5° C. and 60° C.): more stable compared to Form E
solid form by XRPD after 24 hours in bio-relevant media [3]: remained as Form B
purity by HPLC after stability test ([4]; before milling, 40° C./75% RH for one month): 99.9%
purity by HPLC after stability test ([4]; before milling, 80° C. for two weeks): 99.9%
crystal form by XRPD after stability test ([4]; before milling, 80° C. for two weeks and 40° C./75% RH for one month): remained unchanged
crystal form by XRPD after thermal and humidity treatments ([4]; milled, 40° C./75% RH and 80° C.): remains unchanged
degradation after stability test ([4]; milled, 40° C./75% RH for four weeks): did not show any degradation
purity decrease after stability test ([4]; milled, 80° C. for four weeks): 0.8%
thermodynamic stability compared to Form A, from conversion of Form A to Form B [5]: superior thermodynamic stability
Compound: Cc1ccc(F)c([C@@H]2Nc3[nH]c(=O)n(C4CCOCC4)c(=O)c3C[C@@H]2F)c1 [Form B, (6S,7S)-6-fluoro-7-(2-fluoro-5-methylphenyl)-3-(tetrahydro-2H-pyran-4-yl)-5,6,7,8-tetrahydropyrido[2,3-d]pyrimidine-2,4(1H,3H)-dione]
overall thermodynamic stability ranking compared to Forms A, C and E ([2]; temperature ranges covered in the experiments): thermodynamically most stable anhydrous form

Reference: US20250034129A1, “CRYSTALLINE FORMS OF (6S,7S)-6-FLUORO-7-(2-FLUORO-5-METHYLPHENYL)-3-(TETRAHYDRO-2H-PYRAN-4-YL)-5,6,7,8-TETRAHYDROPYRIDO[2,3-d]PYRIMIDINE-2,4(1H,3H)-DIONE” (MYOKARDIA, INC., priority 2023, published 2025)
